We go through one compound from US7182884B2, “Bio-liquid crystal polymer and shaped material using same” (Toyoda Gosei Co., Ltd., priority 2003, dated 2007).

This data set in a line: solubility of the bio-liquid crystal polymer in solvents. Set-up: key: +a: soluble only when heated; +: dissolved; −: not dissolved. It counts as physicochemical.

In the case of `O=C(O)/C=C/c1ccc(O)cc1` [4HCA, 4-hydroxycinnamic acid], the solubility entry (solvent DMF) is recorded as “+”; the solubility result (solvent DMSO) is listed as “+”; the solubility entry (solvent NMP) was “+”; the solubility result (solvent THF) is given as “+”; the solubility entry (solvent acetone) is given as “+”; the solubility entry (solvent acetonitrile) is reported as “+”. In addition, the solubility result reads like this: (solvent chloroform) “−”; (solvent ethanol) “+”; (solvent hexane) “−”; (solvent methanol) “+”; (solvent pentafluorophenol) “+”; (solvent toluene) “−”. For the same compound, for the setting “solvent water”, the solubility entry is recorded as “^+a”.
